Laboratory results reported in patent publication US5484773A, “Treatment of antibiotic associated diarrhea” (priority 1994, dated 1996).

Legend:
CDAD or PMC = conditions: cited from earlier work; for patients in whom diarrhea returns after discontinuing antibiotic treatment: after oral Metronidazole or Vancomycin therapy, ref. [15]; for therapy effective, share of patients who suffer from CDAD or PMC: oral Metronidazole or Vancomycin with removal of offending drug and fluid replacement
C. difficile toxin A [1] = target: T1, C. difficile toxin A (Clostridioides difficile, UniProt P16154); assay: Screening: neutralization of purified toxin A hemagglutination activity by SYNSORBs (Example 1, FIG. 1); assay type: biochemical, Clostridium difficile
T1 construct: Toxin A was isolated from a toxin producing strain of C. difficile; made in house; host or cells: Clostridium difficile ATCC 43255 (VPI strain 10463), native toxin from culture supernatant, not recombinant
Protocol: The amount of toxin A adsorption to SYNSORB was determined by assaying supernatants for reduction of endpoint titers in hemagglutination assays relative to controls without any added SYNSORB. […] SYNSORBs 2, 5, 104, 105, and 134 neutralized about 50% of toxin A activity.
Toxin A was isolated from a toxin producing strain of C. difficile (ATCC 43255, VPI strain 10463) using slight modifications of the method of Sullivan et al..
C. difficile was grown in 2.3 liter of brain heart infusion broth (BHIB) in anaerobic jars for 72 hours at 37° C. The crude culture was centrifuged at 5,000× g for 20 minutes to sediment the bacteria. The resulting culture supernatant was carefully removed and solid ammonium sulfate (897 g) was added to make 60% saturation. […]
Fresh rabbit erythrocytes were washed once in phosphate buffered saline (PBS) and resuspended at a concentration of 4% (v/v) in cold PBS. […] After incubating the plate for 4 hours at 4° C., the hemagglutination titer was visually assessed. […]
After incubation, the SYNSORB was allowed to settle to the bottom of the tubes and the supernatants were carefully removed. Serial 2-fold dilutions of the supernatants were prepared and the hemagglutination endpoint determined as described above.
The extent of reduction in the endpoint in the presence of SYNSORB was determined by comparing the endpoint with that of controls in which SYNSORB was not added. […]

C. difficile toxin A [2] = target: T1, C. difficile toxin A; assay: Determination of optimal binding conditions (amount and incubation time) for toxin A neutralization, hemagglutination (Example 2, FIGS. 2 and 3); assay type: biochemical, Clostridium difficile; conditions: about 20 mg SYNSORB per 1 ml toxin A solution (20 mg/ml); 2 hours, 37° C.; FIG. 2
Protocol: (§1) Fresh rabbit erythrocytes were washed once in phosphate buffered saline (PBS) and resuspended at a concentration of 4% (v/v) in cold PBS. Serial 2-fold dilutions (50 μl) of toxin A-containing solutions were made in cold PBS in U-shaped microtiter wells. An equal volume (50 μl) of rabbit erythrocytes was then added to each well and the microtiter plate was mixed gently. After incubating the plate for 4 hours at 4° C., the hemagglutination titer was visually assessed.
The amount of SYNSORBS 52 and 90 required for maximal toxin A neutralization was determined by adding 1 ml of a purified toxin A solution to pre-weighed amounts of each SYNSORB in 1.5 ml microcentrifuge tubes. SYNSORB 52 samples were tested using 12.8, 21.6 and 43.3 mg amounts of SYNSORB 52; SYNSORB 90 samples were tested using 12.9, 19.2 and 42.3 mg amounts of SYNSORB 90. Samples were incubated for 2 hours at 37° C. on an end-over-end rotator. […]
The amount of neutralization in each sample was determined by comparing the endpoint titers of hemagglutination assays from samples with and without SYNSORB.
The length of incubation time required for optimal neutralization was determined by incubating microcentrifuge tubes containing 1 ml of purified toxin A solution and 20 mg of either SYNSORB 52 or SYNSORB 90. […]
The degree of neutralization at each incubation period was determined as described above.

C. difficile toxin A [3] = target: T1, C. difficile toxin A; assay: Determination of binding affinity of SYNSORBs to toxin A, hemagglutination titer reduction (Example 4, FIG. 4); set-up: species or system Clostridium difficile; conditions: rabbit erythrocytes
Protocol: For the purposes of this invention, oligosaccharide sequences attached to solid supports which bind toxin A means those compositions which reduce endpoint titers from hemagglutination assays by at least 50%.
as §1
To assess the binding affinity of various SYNSORBs to toxin A, each SYNSORB was combined with toxin A as described in Example 1. Endpoint titers from hemagglutination assays using rabbit erythocytes were determined as described previously. […] Those SYNSORBs which reduced titers by greater than 50% were deemed to bind toxin A.

T1 sequence (P16154 whole entry, looked up): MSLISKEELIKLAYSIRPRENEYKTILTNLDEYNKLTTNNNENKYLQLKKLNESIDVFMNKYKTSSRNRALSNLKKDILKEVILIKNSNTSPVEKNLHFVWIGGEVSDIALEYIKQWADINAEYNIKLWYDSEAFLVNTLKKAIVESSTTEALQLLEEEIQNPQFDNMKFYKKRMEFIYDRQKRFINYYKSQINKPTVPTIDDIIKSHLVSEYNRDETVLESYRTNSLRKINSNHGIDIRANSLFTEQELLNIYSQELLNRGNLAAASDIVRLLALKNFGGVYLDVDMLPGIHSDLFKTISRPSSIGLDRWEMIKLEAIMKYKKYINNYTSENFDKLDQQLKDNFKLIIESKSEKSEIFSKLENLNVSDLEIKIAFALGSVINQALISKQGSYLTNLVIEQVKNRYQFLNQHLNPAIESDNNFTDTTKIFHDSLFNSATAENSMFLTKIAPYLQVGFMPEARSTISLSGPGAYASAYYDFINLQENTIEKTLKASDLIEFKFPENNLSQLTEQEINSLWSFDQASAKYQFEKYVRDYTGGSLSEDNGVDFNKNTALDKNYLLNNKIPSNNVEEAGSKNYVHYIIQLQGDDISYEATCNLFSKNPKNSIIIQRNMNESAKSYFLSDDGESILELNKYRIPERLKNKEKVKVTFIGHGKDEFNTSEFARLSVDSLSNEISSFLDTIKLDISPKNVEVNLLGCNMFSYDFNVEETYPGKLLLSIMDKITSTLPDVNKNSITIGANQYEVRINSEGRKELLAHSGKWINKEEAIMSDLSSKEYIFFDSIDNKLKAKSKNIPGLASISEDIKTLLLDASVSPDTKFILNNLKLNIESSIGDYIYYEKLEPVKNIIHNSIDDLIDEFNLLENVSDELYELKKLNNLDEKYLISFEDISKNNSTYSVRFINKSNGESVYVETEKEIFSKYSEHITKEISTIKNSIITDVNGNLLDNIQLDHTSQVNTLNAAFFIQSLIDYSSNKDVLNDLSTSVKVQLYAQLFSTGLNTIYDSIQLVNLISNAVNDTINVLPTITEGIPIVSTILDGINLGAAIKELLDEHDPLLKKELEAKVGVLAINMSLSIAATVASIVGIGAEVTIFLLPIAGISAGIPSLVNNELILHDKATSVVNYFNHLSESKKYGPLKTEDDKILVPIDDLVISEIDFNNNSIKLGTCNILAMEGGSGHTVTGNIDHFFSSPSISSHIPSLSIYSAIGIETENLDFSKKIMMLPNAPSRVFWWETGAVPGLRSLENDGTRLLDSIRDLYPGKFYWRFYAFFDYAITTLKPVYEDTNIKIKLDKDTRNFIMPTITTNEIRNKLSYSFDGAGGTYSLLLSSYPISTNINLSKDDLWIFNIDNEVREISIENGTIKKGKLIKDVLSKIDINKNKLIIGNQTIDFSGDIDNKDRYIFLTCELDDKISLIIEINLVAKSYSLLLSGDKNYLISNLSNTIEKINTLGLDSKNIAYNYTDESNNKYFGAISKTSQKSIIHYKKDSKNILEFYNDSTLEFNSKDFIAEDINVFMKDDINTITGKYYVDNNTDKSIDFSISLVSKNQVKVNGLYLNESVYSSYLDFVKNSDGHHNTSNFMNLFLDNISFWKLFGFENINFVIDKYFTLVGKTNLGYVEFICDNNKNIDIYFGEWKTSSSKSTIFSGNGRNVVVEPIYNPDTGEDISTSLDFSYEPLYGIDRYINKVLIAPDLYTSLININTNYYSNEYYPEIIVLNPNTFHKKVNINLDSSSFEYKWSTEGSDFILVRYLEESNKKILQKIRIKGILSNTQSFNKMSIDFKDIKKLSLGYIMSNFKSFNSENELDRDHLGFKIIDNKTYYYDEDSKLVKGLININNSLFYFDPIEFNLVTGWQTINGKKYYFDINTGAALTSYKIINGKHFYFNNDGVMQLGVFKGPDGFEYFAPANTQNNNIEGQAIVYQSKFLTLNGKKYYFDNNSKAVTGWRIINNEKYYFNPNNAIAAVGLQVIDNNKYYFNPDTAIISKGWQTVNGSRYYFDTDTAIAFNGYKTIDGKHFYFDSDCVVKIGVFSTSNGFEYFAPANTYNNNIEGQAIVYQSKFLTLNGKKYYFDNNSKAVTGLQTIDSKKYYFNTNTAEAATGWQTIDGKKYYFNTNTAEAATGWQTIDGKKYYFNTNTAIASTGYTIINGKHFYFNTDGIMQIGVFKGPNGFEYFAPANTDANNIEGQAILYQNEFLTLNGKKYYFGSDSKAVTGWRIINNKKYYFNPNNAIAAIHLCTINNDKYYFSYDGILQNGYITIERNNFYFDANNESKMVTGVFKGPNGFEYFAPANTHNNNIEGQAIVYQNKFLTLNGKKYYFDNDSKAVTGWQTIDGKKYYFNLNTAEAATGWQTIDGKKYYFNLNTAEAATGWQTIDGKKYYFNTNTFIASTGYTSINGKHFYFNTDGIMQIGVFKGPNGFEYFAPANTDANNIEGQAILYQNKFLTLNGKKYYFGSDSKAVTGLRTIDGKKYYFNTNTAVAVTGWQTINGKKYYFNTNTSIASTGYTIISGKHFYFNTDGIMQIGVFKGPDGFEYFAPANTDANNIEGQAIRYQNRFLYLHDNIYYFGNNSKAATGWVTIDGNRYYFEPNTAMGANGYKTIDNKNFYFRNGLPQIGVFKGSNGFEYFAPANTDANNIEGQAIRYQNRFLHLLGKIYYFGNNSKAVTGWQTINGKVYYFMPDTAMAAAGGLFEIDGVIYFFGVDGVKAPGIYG

Compound: Cc1ncc([N+](=O)[O-])n1CCO [Metronidazole]
- patients in whom diarrhea returns after discontinuing antibiotic treatment (CDAD or PMC): about 20%
- therapy effective, share of patients who suffer from CDAD or PMC (CDAD or PMC): about 80%

Compound: CN[C@H](CC(C)C)C(=O)N[C@H]1C(=O)N[C@@H](CC(N)=O)C(=O)N[C@H]2C(=O)N[C@H]3C(=O)N[C@H](C(=O)N[C@H](C(=O)O)c4cc(O)cc(O)c4-c4cc3ccc4O)[C@H](O)c3ccc(c(Cl)c3)Oc3cc2cc(c3O[C@@H]2O[C@H](CO)[C@@H](O)[C@H](O)[C@H]2O[C@H]2C[C@](C)(N)[C@H](O)[C@H](C)O2)Oc2ccc(cc2Cl)[C@H]1O [Vancomycin]
- patients in whom diarrhea returns after discontinuing antibiotic treatment (CDAD or PMC): about 20%
- therapy effective, share of patients who suffer from CDAD or PMC (CDAD or PMC): about 80%

Compound: αGal(1-3)βGal(1-3)βGlcNAc [SYNSORB 134]
- removal/neutralization of toxin A activity (reduction of endpoint titers in hemagglutination assays) (C. difficile toxin A [1]; purified toxin A 0.5 ml, 10.1 to 17.5 mg SYNSORB, room temperature, 2 hours, rabbit erythrocytes): about 50%

Compound: αGal(1-3)βGal(1-4)βGlc [SYNSORB 90]
- neutralization of toxin A activity (in words) (C. difficile toxin A [1]; purified toxin A, hemagglutination vs controls without SYNSORB): as effective at neutralizing toxin A activity
- neutralization of toxin A activity (C. difficile toxin A [2]): more than 75%

Compound: αGal(1-4)βGal(1-4)βGlc [SYNSORB 68]
- binding to toxin A (criterion: titer reduced by greater than 50%) (C. difficile toxin A [3]): bind toxin A

Compound: αNeuAc(2-6)βGal(1-4)βGlc [SYNSORB 89]
- binding to toxin A (criterion: titer reduced by greater than 50%) (C. difficile toxin A [3]): appear not to bind toxin A

Compound: βGal(1-4)βGlcNAc [SYNSORB 34]
- binding to toxin A (criterion: titer reduced by greater than 50%) (C. difficile toxin A [3]): appear not to bind toxin A
